Source: ChEMBL document CHEMBL1955765, “Wake-promoting agents: search for next generation modafinil: part II” (Bioorg Med Chem Lett, 2012)

Key:
[1] = molecular target: Sodium-dependent serotonin transporter (Rattus norvegicus, UniProt P31652); assay: Inhibition of rat SERT-mediated uptake
Transporter = Transporter (Rattus norvegicus, UniProt Q63380); assay: Inhibition of rat NET-mediated uptake
Cytochrome P450 1A2 = molecular target: T1, Cytochrome P450 1A2 (Homo sapiens, UniProt P05177); assay: (§1) Inhibition of CYP1A2 in human microsome at 100 uM; format: ADME, microsomes; details: microsomes, 100 µM
T1 sequence (P05177 whole entry): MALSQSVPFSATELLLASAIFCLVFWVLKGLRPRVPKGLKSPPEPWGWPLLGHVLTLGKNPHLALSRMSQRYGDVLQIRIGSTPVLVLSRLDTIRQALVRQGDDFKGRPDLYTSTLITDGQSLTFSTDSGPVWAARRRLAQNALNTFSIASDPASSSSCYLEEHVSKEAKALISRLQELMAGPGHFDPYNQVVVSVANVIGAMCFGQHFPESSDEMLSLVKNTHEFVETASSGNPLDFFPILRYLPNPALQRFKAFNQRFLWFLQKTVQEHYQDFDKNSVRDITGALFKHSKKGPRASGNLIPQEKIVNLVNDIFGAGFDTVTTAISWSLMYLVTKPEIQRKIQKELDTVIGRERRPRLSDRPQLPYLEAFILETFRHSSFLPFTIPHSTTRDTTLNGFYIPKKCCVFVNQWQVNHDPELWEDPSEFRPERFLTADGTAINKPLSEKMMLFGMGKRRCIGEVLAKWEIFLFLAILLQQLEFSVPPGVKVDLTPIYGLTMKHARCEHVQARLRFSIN

Cytochrome P450 2D6 = Cytochrome P450 2D6 (Homo sapiens, UniProt P10635); assay: Inhibition of CYP2D6 in human microsome; format: ADME
Rattus norvegicus = assay: Wake promoting activity in Sprague-Dawley rat assessed as increase of wake duration at 100 mg/kg, ip after 4 hrs (reference value: 79.2 +/- 7.2 mins); format: functional; details: route intraperitoneal
[2] = molecular target: T2, Sodium-dependent dopamine transporter (Rattus norvegicus, UniProt P23977); assay: Inhibition of rat DAT-mediated uptake
[3] = molecular target: T2, Sodium-dependent dopamine transporter; assay: Inhibition of rat DAT
Cytochrome P450 2C19 = Cytochrome P450 2C19 (Homo sapiens, UniProt P33261); assay: Inhibition of CYP2C19 in human microsome; format: ADME
Cytochrome P450 2C9 = Cytochrome P450 2C9 (Homo sapiens, UniProt P11712); assay: Inhibition of CYP2C9 in human microsome; format: ADME
Cytochrome P450 3A4 = Cytochrome P450 3A4 (Homo sapiens, UniProt P08684); assay: Inhibition of CYP3A4 in human microsome; format: ADME
Cytochrome P450 3A5 = Cytochrome P450 3A5 (Homo sapiens, UniProt P20815); assay: Inhibition of CYP3A5 in human microsome; format: ADME
Cytochrome P450 1A1 = molecular target: T3, Cytochrome P450 1A1 (Homo sapiens, UniProt P04798); assay: (§2) Inhibition of CYP1A1 in human microsome at 100 uM; format: ADME, microsomes; details: microsomes, 100 µM
T3 sequence (P04798 whole entry): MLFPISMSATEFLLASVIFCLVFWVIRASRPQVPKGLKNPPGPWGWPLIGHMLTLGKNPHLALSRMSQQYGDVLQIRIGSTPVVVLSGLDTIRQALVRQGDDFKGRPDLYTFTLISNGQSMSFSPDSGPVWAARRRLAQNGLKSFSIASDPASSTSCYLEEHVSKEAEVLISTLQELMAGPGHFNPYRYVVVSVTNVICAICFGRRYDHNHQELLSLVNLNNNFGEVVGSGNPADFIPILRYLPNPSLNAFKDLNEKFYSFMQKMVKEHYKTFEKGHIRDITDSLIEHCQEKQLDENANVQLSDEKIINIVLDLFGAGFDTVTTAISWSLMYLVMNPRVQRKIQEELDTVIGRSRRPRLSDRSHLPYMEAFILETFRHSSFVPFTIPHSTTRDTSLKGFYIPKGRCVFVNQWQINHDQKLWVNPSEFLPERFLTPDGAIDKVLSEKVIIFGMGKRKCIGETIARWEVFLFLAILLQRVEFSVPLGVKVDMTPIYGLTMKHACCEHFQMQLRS

[4] = molecular target: Sodium-dependent serotonin transporter (Rattus norvegicus) (UniProt P31652); assay: Inhibition of rat SERT at 10 uM
[5] = molecular target: Transporter (Rattus norvegicus) (UniProt Q63380); assay: Inhibition of rat NET at 10 uM
CYP1A2 = molecular target: T4, CYP1A2 (Homo sapiens, UniProt P05177); assay: as §1; format: ADME, microsomes; details: human microsomes
T4 sequence (P05177 whole entry): T1 sequence (P05177 whole entry)

CYP1A1 = molecular target: T5, CYP1A1 (Homo sapiens, UniProt P04798); assay: as §2; format: ADME, microsomes; details: human microsomes
T5 sequence (P04798 whole entry): T3 sequence (P04798 whole entry)

T2 sequence (P23977 whole entry): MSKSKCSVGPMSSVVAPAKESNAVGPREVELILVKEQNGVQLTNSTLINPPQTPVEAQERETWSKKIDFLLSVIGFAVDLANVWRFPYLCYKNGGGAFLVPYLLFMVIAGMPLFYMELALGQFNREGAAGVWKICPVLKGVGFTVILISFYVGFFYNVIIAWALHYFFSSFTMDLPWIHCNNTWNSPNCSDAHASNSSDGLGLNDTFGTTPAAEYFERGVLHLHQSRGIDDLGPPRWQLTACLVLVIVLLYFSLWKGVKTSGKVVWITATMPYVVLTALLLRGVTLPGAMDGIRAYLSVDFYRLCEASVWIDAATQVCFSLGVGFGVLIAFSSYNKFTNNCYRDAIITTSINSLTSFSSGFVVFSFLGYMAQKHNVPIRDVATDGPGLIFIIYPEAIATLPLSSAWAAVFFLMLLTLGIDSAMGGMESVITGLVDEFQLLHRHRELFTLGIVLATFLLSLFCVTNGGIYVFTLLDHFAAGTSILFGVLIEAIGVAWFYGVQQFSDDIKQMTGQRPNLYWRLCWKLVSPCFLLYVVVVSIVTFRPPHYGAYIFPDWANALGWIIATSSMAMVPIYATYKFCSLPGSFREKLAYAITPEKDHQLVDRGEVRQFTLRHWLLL
Chain of Cytochrome P450 2D6 (P10635 whole entry): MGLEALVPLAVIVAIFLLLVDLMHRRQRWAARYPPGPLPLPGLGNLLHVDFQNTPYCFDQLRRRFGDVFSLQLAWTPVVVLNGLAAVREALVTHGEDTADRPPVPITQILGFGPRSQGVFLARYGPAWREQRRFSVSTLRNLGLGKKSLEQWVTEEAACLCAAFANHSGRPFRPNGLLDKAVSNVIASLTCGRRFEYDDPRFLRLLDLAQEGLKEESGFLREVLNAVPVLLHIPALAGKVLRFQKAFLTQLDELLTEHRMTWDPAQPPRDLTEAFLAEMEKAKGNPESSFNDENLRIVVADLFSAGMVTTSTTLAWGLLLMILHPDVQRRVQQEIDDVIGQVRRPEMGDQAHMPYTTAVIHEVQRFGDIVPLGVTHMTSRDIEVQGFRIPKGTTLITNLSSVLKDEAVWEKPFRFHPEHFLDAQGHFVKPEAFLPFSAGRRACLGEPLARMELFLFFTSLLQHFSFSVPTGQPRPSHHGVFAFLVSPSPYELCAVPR
Chain of Cytochrome P450 3A4 (P08684 whole entry): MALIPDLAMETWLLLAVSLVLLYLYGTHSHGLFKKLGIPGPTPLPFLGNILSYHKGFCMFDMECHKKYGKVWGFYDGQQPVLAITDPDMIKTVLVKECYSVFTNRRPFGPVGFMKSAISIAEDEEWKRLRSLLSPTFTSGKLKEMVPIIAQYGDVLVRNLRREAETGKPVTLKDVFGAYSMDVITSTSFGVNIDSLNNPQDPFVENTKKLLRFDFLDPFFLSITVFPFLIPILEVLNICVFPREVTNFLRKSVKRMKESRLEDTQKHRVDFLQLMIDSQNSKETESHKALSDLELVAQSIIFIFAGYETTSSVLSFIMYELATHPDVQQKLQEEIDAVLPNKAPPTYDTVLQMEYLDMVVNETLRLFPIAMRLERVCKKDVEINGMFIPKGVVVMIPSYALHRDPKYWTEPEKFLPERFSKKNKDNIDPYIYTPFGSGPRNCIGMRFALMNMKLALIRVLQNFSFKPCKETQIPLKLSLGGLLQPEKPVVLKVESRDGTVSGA
Chain of Sodium-dependent serotonin transporter (P31652 whole entry): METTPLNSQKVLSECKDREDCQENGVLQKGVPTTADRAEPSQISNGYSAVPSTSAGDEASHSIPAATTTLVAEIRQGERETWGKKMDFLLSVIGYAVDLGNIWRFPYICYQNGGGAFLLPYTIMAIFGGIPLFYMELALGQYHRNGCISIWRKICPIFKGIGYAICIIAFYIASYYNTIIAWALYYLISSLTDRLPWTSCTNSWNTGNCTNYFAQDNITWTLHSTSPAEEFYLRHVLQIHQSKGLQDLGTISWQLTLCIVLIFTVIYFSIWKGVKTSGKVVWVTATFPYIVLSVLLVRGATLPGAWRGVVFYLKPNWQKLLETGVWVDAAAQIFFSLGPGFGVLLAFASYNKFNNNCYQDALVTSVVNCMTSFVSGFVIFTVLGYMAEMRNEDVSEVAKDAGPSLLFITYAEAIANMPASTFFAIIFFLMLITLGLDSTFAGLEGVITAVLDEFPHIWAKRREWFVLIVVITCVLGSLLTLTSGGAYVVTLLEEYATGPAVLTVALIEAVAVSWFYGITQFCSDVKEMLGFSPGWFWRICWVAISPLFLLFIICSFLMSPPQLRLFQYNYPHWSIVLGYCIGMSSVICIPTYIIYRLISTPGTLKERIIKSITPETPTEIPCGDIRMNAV
Chain of Sodium-dependent serotonin transporter (Rattus norvegicus) (P31652 whole entry): as above
Chain of Cytochrome P450 2C9 (P11712 whole entry): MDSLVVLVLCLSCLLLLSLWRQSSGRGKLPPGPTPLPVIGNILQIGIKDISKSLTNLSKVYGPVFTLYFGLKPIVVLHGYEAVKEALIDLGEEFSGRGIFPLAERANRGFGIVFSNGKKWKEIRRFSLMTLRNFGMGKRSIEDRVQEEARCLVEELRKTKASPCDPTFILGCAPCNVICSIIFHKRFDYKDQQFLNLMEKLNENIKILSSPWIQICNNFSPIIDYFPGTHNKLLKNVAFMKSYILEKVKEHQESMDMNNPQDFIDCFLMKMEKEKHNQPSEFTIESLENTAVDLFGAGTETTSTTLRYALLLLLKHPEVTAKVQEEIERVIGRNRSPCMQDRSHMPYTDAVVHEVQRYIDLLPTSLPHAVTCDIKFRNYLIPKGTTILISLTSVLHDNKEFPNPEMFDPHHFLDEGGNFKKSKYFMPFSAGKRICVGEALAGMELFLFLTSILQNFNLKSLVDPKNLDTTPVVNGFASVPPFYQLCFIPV
Chain of Transporter (Q63380 whole entry): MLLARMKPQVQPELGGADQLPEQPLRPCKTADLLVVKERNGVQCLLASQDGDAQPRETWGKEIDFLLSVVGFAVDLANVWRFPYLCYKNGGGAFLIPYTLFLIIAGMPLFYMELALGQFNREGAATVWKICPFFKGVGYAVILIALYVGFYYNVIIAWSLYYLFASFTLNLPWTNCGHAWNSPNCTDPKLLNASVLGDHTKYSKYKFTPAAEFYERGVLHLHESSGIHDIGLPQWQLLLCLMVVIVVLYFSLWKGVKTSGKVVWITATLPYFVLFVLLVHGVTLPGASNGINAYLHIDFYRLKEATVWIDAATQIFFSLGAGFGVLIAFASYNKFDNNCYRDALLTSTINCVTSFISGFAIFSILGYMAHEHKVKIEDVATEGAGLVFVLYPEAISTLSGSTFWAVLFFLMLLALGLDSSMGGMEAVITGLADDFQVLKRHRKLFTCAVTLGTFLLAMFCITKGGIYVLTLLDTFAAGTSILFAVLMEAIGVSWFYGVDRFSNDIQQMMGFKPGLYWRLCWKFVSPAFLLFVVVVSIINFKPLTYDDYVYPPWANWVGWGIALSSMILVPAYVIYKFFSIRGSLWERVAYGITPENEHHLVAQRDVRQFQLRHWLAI
Chain of Transporter (Rattus norvegicus) (Q63380 as listed by the source): as the sequence (Q63380 whole entry) above
Chain of Cytochrome P450 3A5 (P20815 whole entry): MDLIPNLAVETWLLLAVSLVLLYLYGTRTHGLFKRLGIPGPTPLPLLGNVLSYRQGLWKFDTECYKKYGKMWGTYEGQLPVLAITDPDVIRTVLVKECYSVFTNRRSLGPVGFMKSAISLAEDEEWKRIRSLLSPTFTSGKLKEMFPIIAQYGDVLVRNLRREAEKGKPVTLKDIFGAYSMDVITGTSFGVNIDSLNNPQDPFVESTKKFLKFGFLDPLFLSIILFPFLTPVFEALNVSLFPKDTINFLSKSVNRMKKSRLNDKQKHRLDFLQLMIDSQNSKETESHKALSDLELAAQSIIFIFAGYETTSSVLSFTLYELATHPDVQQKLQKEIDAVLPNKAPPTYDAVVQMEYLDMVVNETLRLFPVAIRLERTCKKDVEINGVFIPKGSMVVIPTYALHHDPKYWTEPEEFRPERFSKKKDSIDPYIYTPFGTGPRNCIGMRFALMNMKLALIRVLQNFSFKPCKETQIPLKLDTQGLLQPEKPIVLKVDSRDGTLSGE
Chain of Cytochrome P450 2C19 (P33261 whole entry): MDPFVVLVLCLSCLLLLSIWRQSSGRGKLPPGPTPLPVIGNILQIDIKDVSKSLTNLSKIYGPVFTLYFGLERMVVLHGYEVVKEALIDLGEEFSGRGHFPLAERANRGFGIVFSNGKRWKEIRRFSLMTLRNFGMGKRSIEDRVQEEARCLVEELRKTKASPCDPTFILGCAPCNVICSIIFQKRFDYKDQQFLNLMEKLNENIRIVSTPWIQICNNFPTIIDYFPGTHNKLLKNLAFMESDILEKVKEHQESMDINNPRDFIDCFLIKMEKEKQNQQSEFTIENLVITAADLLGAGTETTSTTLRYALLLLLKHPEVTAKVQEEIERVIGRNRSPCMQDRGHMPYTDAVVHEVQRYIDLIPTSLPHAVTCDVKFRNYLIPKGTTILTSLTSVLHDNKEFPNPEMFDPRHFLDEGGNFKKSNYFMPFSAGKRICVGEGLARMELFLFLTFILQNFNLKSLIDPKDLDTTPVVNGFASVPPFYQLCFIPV

Row | IC50 [1] [µM] | IC50 (Transporter) [µM] | inhibition (INH) (Cytochrome P450 1A2) [%] | IC50 (Cytochrome P450 2D6) [µM] | IC50 [2] [µM] | IC50 [3] [µM] | IC50 (Cytochrome P450 2C19) [µM] | IC50 (Cytochrome P450 2C9) [µM] | IC50 (Cytochrome P450 3A4) [µM] | IC50 (Cytochrome P450 3A5) [µM] | inhibition (INH) (Cytochrome P450 1A1) [%] | inhibition [4] [%] | inhibition [5] [%] | inhibition at 100 µM (CYP1A2) [%] | inhibition at 100 µM (CYP1A1) [%] | Compound | Time (Rattus norvegicus) [min]
1 | > 300 | 32 | 20 | 151 | 3.8 | 4.2 | 112 | 129 | 159 | 159 | 20 | – | – | – | – | NC(=O)C[S+]([O-])Cc1ccccc1-c1ccc(Cl)cc1 (single isomer, unassigned; (+)) [listing 1 of 2 here] | 227.1
2 | – | – | – | – | – | – | – | – | – | – | – | 4 | 12 | – | – | NC(=O)C[S+]([O-])Cc1ccccc1-c1ccc(Cl)cc1 (single isomer, unassigned; (+)) [listing 2 of 2 here] | –
3 | > 300 | 11 | – | 177 | – | 0.4 | 174 | 233 | 139 | 139 | – | – | – | 14 | 14 | NC(=O)C[S+]([O-])Cc1ccccc1-c1ccc(Cl)cc1 (single isomer, unassigned; (-)) [listing 1 of 2 here] | 238.5
4 | – | – | – | – | – | – | – | – | – | – | – | 3 | 16 | – | – | NC(=O)C[S+]([O-])Cc1ccccc1-c1ccc(Cl)cc1 (single isomer, unassigned; (-)) [listing 2 of 2 here] | –
